Experimental data published in ChEMBL document CHEMBL1201862, “PubChem BioAssay data set” (2004).
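Growth conditions: 96-well plates. Treatment: test compound, 48 hours, 5 concentrations. Analysis: linear interpolation between bracketing concentrations; unreached endpoints set to highest concentration. The concentration for 50% growth inhibition is given as GI50.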 Active and inactive are the calls of the source. Cut-off read from the data, not from the text of the source: active = GI50 up to about 1.1 µM and inactive = higher.

Assays:
Assay in all cases: growth of human tumour cells (NCI), 48 h
RXF 393 = tested on: RXF 393
NCI-H460 = tested on: NCI-H460
NCI-H226 = tested on: NCI-H226
A498 = tested on: A498
NCI-H23 = tested on: NCI-H23
SW-620 = tested on: SW-620
A549 = tested on: A549
MDA-N = tested on: MDA-N
OVCAR-3 = tested on: OVCAR-3
ACHN = tested on: ACHN
HT-29 = tested on: HT-29
CAKI-1 = tested on: CAKI-1
SF-295 = tested on: SF-295
PC-3 = tested on: PC-3
IGROV-1 = tested on: IGROV-1
UO-31 = tested on: UO-31
HOP-62 = tested on: HOP-62
SNB-19 = tested on: SNB-19
SN12C = tested on: SN12C
M14 = tested on: M14
RPMI-8226 = tested on: RPMI-8226
Hs-578T = tested on: Hs-578T
U-251 = tested on: U-251
786-0 = tested on: 786-0
UACC-62 = tested on: UACC-62
SF-268 = tested on: SF-268
TK-10 = tested on: TK-10
MDA-MB-231 = tested on: MDA-MB-231
SNB-75 = tested on: SNB-75
SK-MEL-5 = tested on: SK-MEL-5
HOP-92 = tested on: HOP-92
HCT-116 = tested on: HCT-116
KM12 = tested on: KM12
SF-539 = tested on: SF-539
MOLT-4 = tested on: MOLT-4
EKVX = tested on: EKVX
SK-OV-3 = tested on: SK-OV-3
COLO 205 = tested on: COLO 205
NCI-H522 = tested on: NCI-H522
LOX IMVI = tested on: LOX IMVI
Malme-3M = tested on: Malme-3M
SK-MEL-28 = tested on: SK-MEL-28
SK-MEL-2 = tested on: SK-MEL-2
CCRF-CEM = tested on: CCRF-CEM
NCI/ADR-RES = tested on: NCI/ADR-RES
K562 = tested on: K562
UACC-257 = tested on: UACC-257
DU-145 = tested on: DU-145
OVCAR-8 = tested on: OVCAR-8
T47D = tested on: T47D
HCT-15 = tested on: HCT-15
OVCAR-5 = tested on: OVCAR-5
HL-60 = tested on: HL-60
BT-549 = tested on: BT-549
MDA-MB-435 = tested on: MDA-MB-435
SR = tested on: SR
OVCAR-4 = tested on: OVCAR-4
HCC 2998 = tested on: HCC 2998
MCF7 = tested on: MCF7

Measured: GI50

COC(=O)CCCc1c(-c2[nH]c3ccccc3c2CCCC(=O)OC)[nH]c2ccccc12
> 100 µM: HCT-15
inactive: RXF 393 > 100 µM | NCI-H460 > 100 µM | NCI-H226 > 100 µM | A498 > 100 µM | NCI-H23 > 100 µM | SW-620 > 100 µM | A549 > 100 µM | MDA-N > 100 µM | OVCAR-3 > 100 µM | ACHN > 100 µM | HT-29 > 100 µM | CAKI-1 > 100 µM | SF-295 > 100 µM | PC-3 > 100 µM | IGROV-1 > 100 µM | UO-31 > 100 µM | HOP-62 > 100 µM | SNB-19 > 100 µM | SN12C > 100 µM | M14 > 100 µM | RPMI-8226 > 100 µM | Hs-578T > 100 µM | U-251 > 100 µM | 786-0 > 100 µM | UACC-62 > 100 µM | SF-268 > 100 µM | TK-10 > 100 µM | MDA-MB-231 > 100 µM | SNB-75 13.6 µM | SK-MEL-5 > 100 µM | HOP-92 > 100 µM | HCT-116 > 100 µM | KM12 > 100 µM | SF-539 > 100 µM | MOLT-4 > 100 µM | EKVX > 100 µM | SK-OV-3 > 100 µM | COLO 205 > 100 µM | NCI-H522 > 100 µM | LOX IMVI > 100 µM | Malme-3M 39.3 µM | SK-MEL-28 > 100 µM | SK-MEL-2 > 100 µM | CCRF-CEM > 100 µM | NCI/ADR-RES > 100 µM | K562 > 100 µM | UACC-257 > 100 µM | DU-145 > 100 µM | OVCAR-8 > 100 µM | T47D > 100 µM | OVCAR-5 > 100 µM | HL-60 > 100 µM | BT-549 > 100 µM | MDA-MB-435 > 100 µM

Cc1nc2ccccc2c(=O)n1NC(=O)c1ccccn1
inactive: RXF 393 > 100 µM | NCI-H460 > 100 µM | A498 > 100 µM | NCI-H23 > 100 µM | SW-620 > 100 µM | A549 > 100 µM | MDA-N > 100 µM | OVCAR-3 > 100 µM | ACHN > 100 µM | HT-29 > 100 µM | SF-295 > 100 µM | PC-3 > 100 µM | IGROV-1 > 100 µM | UO-31 > 100 µM | SR > 100 µM | HOP-62 > 100 µM | SNB-19 > 100 µM | SN12C > 100 µM | M14 > 100 µM | RPMI-8226 > 100 µM | Hs-578T > 100 µM | OVCAR-4 > 100 µM | U-251 > 100 µM | 786-0 > 100 µM | UACC-62 > 100 µM | SF-268 > 100 µM | TK-10 > 100 µM | MDA-MB-231 > 100 µM | SNB-75 35.7 µM | SK-MEL-5 > 100 µM | HOP-92 > 100 µM | HCC 2998 > 100 µM | HCT-116 > 100 µM | KM12 > 100 µM | SF-539 > 100 µM | MOLT-4 > 100 µM | EKVX > 100 µM | SK-OV-3 > 100 µM | COLO 205 > 100 µM | NCI-H522 > 100 µM | LOX IMVI > 100 µM | Malme-3M > 100 µM | SK-MEL-28 > 100 µM | CCRF-CEM > 100 µM | NCI/ADR-RES > 100 µM | K562 > 100 µM | UACC-257 > 100 µM | DU-145 > 100 µM | OVCAR-8 > 100 µM | T47D > 100 µM | HL-60 > 100 µM | BT-549 > 100 µM | MDA-MB-435 > 100 µM

c1cc(-c2ccsc2-c2ccsc2)cs1
inactive: RXF 393 27.4 µM | NCI-H460 > 100 µM | A498 > 100 µM | NCI-H23 46.3 µM | SW-620 > 91.8 µM | A549 46.3 µM | MDA-N 41.3 µM | OVCAR-3 23.8 µM | ACHN > 100 µM | HT-29 > 100 µM | CAKI-1 > 100 µM | SF-295 > 81.1 µM | PC-3 > 100 µM | IGROV-1 > 79.3 µM | UO-31 > 90.6 µM | SR 16.3 µM | HOP-62 77.3 µM | SNB-19 > 100 µM | SN12C > 86.9 µM | M14 > 100 µM | RPMI-8226 29.9 µM | Hs-578T 59.3 µM | OVCAR-4 > 55.3 µM | U-251 > 100 µM | 786-0 > 93.3 µM | MCF7 > 60.4 µM | UACC-62 > 88.9 µM | SF-268 > 86.1 µM | TK-10 > 100 µM | MDA-MB-231 > 100 µM | SNB-75 44.5 µM | SK-MEL-5 71.1 µM | HOP-92 > 92.3 µM | HCC 2998 46.8 µM | HCT-116 52.1 µM | KM12 37.3 µM | SF-539 > 100 µM | MOLT-4 25.2 µM | EKVX > 100 µM | SK-OV-3 > 100 µM | COLO 205 > 87.1 µM | NCI-H522 26.1 µM | LOX IMVI 55.3 µM | Malme-3M 26.9 µM | SK-MEL-28 > 100 µM | SK-MEL-2 28.5 µM | CCRF-CEM 50.1 µM | NCI/ADR-RES > 100 µM | K562 > 27.2 µM | UACC-257 > 100 µM | OVCAR-8 > 100 µM | T47D 58.1 µM | OVCAR-5 > 100 µM | HL-60 37.5 µM | BT-549 81.1 µM | MDA-MB-435 36.6 µM
47.8 µM: HCT-15

O=[N+]([O-])c1cc(-c2ccc([As](=O)(O)O)cc2)ccc1[As](=O)(O)O
> 100 µM: HCT-15
inactive: RXF 393 > 100 µM | NCI-H460 > 100 µM | NCI-H226 > 100 µM | A498 > 100 µM | NCI-H23 > 100 µM | SW-620 > 100 µM | A549 > 100 µM | MDA-N > 100 µM | OVCAR-3 > 100 µM | ACHN > 100 µM | HT-29 > 100 µM | CAKI-1 > 100 µM | SF-295 > 100 µM | PC-3 > 100 µM | IGROV-1 > 100 µM | UO-31 > 100 µM | SR > 100 µM | HOP-62 > 100 µM | SNB-19 > 100 µM | SN12C > 100 µM | M14 > 100 µM | RPMI-8226 > 100 µM | Hs-578T > 100 µM | OVCAR-4 > 100 µM | U-251 > 100 µM | 786-0 > 100 µM | UACC-62 > 100 µM | SF-268 > 100 µM | TK-10 > 100 µM | MDA-MB-231 > 100 µM | SK-MEL-5 > 100 µM | HOP-92 > 100 µM | HCT-116 > 100 µM | KM12 > 100 µM | MOLT-4 > 100 µM | EKVX > 100 µM | NCI-H522 > 100 µM | LOX IMVI > 100 µM | Malme-3M > 100 µM | SK-MEL-28 > 100 µM | SK-MEL-2 > 100 µM | CCRF-CEM > 100 µM | NCI/ADR-RES > 100 µM | K562 > 100 µM | UACC-257 > 100 µM | DU-145 > 100 µM | OVCAR-8 > 100 µM | T47D > 100 µM | OVCAR-5 > 100 µM | HL-60 > 100 µM | BT-549 > 100 µM | MDA-MB-435 > 100 µM

COc1cc2nc(-c3ccc4ccccc4c3)nc(O)c2cc1OC
inactive: RXF 393 41.7 µM | NCI-H460 > 100 µM | NCI-H226 > 100 µM | A498 72.9 µM | NCI-H23 49.2 µM | A549 > 100 µM | MDA-N > 100 µM | OVCAR-3 > 100 µM | ACHN 48.8 µM | HT-29 > 100 µM | CAKI-1 > 100 µM | SF-295 48.9 µM | PC-3 > 100 µM | IGROV-1 > 100 µM | UO-31 > 100 µM | SR > 100 µM | HOP-62 19 µM | SNB-19 23.8 µM | SN12C > 100 µM | M14 > 100 µM | RPMI-8226 > 100 µM | Hs-578T 53.2 µM | OVCAR-4 42.9 µM | 786-0 22.9 µM | MCF7 > 100 µM | UACC-62 99.3 µM | SF-268 19.1 µM | MDA-MB-231 > 100 µM | SNB-75 13.8 µM | SK-MEL-5 > 100 µM | HOP-92 37.5 µM | HCC 2998 > 100 µM | HCT-116 > 100 µM | KM12 > 100 µM | MOLT-4 > 100 µM | EKVX > 100 µM | SK-OV-3 > 100 µM | COLO 205 > 100 µM | NCI-H522 56.1 µM | LOX IMVI > 100 µM | Malme-3M 49.2 µM | SK-MEL-2 42.8 µM | CCRF-CEM > 100 µM | NCI/ADR-RES 69.5 µM | K562 > 100 µM | UACC-257 > 100 µM | DU-145 > 100 µM | OVCAR-8 43.2 µM | T47D > 100 µM | OVCAR-5 > 100 µM | HL-60 > 100 µM | BT-549 > 100 µM
> 100 µM: HCT-15
